Assay results reported in PubChem BioAssay (NCI).
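48-hour exposure; five concentrations; linearly interpolated endpoints. At the TGI there is no net growth.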

Assays:
Assay in all cases: NCI-60 cell line screen, 48 h
ACHN renal = test system: ACHN renal
MALME-3M melanoma = test system: MALME-3M melanoma
SK-MEL-2 melanoma = test system: SK-MEL-2 melanoma
OVCAR-3 ovarian = test system: OVCAR-3 ovarian
SNB-19 CNS = test system: SNB-19 CNS
HOP-62 NSCLC = test system: HOP-62 NSCLC
HL-60(TB) leukemia = test system: HL-60(TB) leukemia
NCI/ADR-RES ovarian = test system: NCI/ADR-RES ovarian
T-47D breast = test system: T-47D breast
HCT-15 colon = test system: HCT-15 colon
SK-OV-3 ovarian = test system: SK-OV-3 ovarian
HT29 colon = test system: HT29 colon
HCC-2998 colon = test system: HCC-2998 colon
SF-295 CNS = test system: SF-295 CNS
MDA-N = test system: MDA-N
M14 melanoma = test system: M14 melanoma
RPMI-8226 leukemia = test system: RPMI-8226 leukemia
SF-268 CNS = test system: SF-268 CNS

Row | Compound | TGI (ACHN renal) | TGI (MALME-3M melanoma) | TGI (SK-MEL-2 melanoma) | TGI (OVCAR-3 ovarian) | TGI (SNB-19 CNS) | TGI (HOP-62 NSCLC) | TGI (HL-60(TB) leukemia) | TGI (NCI/ADR-RES ovarian) | TGI (T-47D breast) | TGI (HCT-15 colon) | TGI (SK-OV-3 ovarian) | TGI (HT29 colon) | TGI (HCC-2998 colon) | TGI (SF-295 CNS) | TGI (MDA-N) | TGI (M14 melanoma) | TGI (RPMI-8226 leukemia) | TGI (SF-268 CNS)
1 | Cc1c(C)c(S(=O)(=O)N(CCCCCN)OCCCN)c(C)c2c1OC(C)(C)CC2 | 39 µM | 28 µM | 11.2 µM | 19.9 µM | 24.8 µM | 25.1 µM | 5.92 µM | 41.7 µM | > 57.8 µM | 42.5 µM | 32 µM | 28.7 µM | 6.05 µM | 45.8 µM | 31.1 µM | > 100 µM | 18 µM | 28.5 µM
2 | CCc1ccc(CCC(=O)O)nc1 | > 100 µM | > 100 µM | > 100 µM | > 100 µM | > 100 µM | > 100 µM | > 100 µM | > 100 µM | > 100 µM | > 100 µM | > 100 µM | > 100 µM | > 100 µM | > 100 µM | > 100 µM | > 100 µM | > 100 µM | > 100 µM
3 | CCOC(=O)C1=C(OS(=O)(=O)C(F)(F)F)CCCC1 | > 100 µM | > 100 µM | > 100 µM | > 100 µM | > 100 µM | > 100 µM | > 100 µM | > 100 µM | > 100 µM | > 100 µM | > 100 µM | > 100 µM | > 100 µM | > 100 µM | > 100 µM | > 100 µM | > 100 µM | > 100 µM
4 | Cc1nc2c(=O)[nH]c3ccccc3c2o1 | > 100 µM | > 100 µM | > 100 µM | > 100 µM | > 100 µM | > 100 µM | > 100 µM | > 100 µM | > 100 µM | > 100 µM | > 100 µM | > 100 µM | > 100 µM | > 100 µM | > 100 µM | > 100 µM | > 100 µM | > 100 µM
5 | Oc1ccc2ccccc2c1-c1c(Nc2ccccc2)ccc2ccccc12 | 38.8 µM | 25 µM | 36.3 µM | 22.7 µM | 37.4 µM | 30.1 µM | 48.4 µM | > 51.3 µM | 39.5 µM | > 56.4 µM | 18.7 µM | > 53.5 µM | 29.2 µM | 30.5 µM | 20.5 µM | 24.4 µM | 47.6 µM | 31.6 µM
6 | COc1cc(C2SCC(=O)N2c2ccc(-c3ccc(-n4c(-c5ccccc5)nc5ccccc5c4=O)cc3)cc2)ccc1O (stereo not given) | > 100 µM | > 100 µM | > 100 µM | > 100 µM | > 100 µM | > 100 µM | > 100 µM | > 100 µM | 71.5 µM | > 100 µM | > 100 µM | > 100 µM | > 100 µM | > 100 µM | > 100 µM | > 100 µM | > 100 µM | > 100 µM
7 | O=C1NCC2(CCN(Cc3ccccc3)CC2)N1 | > 100 µM | > 100 µM | > 100 µM | > 100 µM | > 100 µM | > 100 µM | > 100 µM | > 100 µM | > 100 µM | > 100 µM | > 100 µM | > 100 µM | > 100 µM | > 100 µM | > 100 µM | > 100 µM | > 100 µM | > 100 µM
8 | O=C(CC(=O)N(C(=O)c1ccccc1)c1ccc(Cl)cc1)N/N=C\c1ccccc1O | > 100 µM | > 100 µM | > 100 µM | > 100 µM | > 100 µM | 89.2 µM | > 100 µM | > 100 µM | > 100 µM | > 100 µM | 54.3 µM | > 100 µM | > 100 µM | 80.9 µM | > 100 µM | > 100 µM | > 100 µM | > 100 µM
9 | Brc1ccccc1/C=C\C1(c2ccccc2)OCCO1 | 21.3 µM | 29.9 µM | 44.7 µM | 25.5 µM | 28.9 µM | 27.7 µM | > 52.3 µM | 32.7 µM | 31.4 µM | 19.5 µM | 26.5 µM | 19 µM | 32.2 µM | 26.4 µM | 25.3 µM | 25.6 µM | 6.78 µM | 16 µM
10 | CCOC(=O)C1(Cc2ccccc2)Cc2cc3c(cc2C1=O)CCC3 (stereo not given) | > 100 µM | > 100 µM | > 100 µM | > 100 µM | > 100 µM | > 100 µM | > 100 µM | > 100 µM | > 100 µM | > 100 µM | > 100 µM | > 100 µM | > 100 µM | > 100 µM | > 100 µM | > 100 µM | > 100 µM | > 100 µM
